# Laboratory results: publication PMC3852661, “Structural basis of SUFU–GLI interaction in human Hedgehog signalling regulation” (Acta Crystallographica Section D: Biological Crystallography, 2013)
# Experiments:
# [1] = system: MBP-SUFU-FL, mutation of Asp159; test: Microscale thermophoresis, MBP-SUFU-FL mutated at Asp159; assay type: binding, human; details: mutation of Asp159 in MBP-SUFU-FL, data not shown
# Protocol: A 5-FAM-labelled peptide (FAM-GLI1p) comprising residues 115–131 of GLI1 (Supplementary Table S1b) was synthesized by Pepceuticals Ltd. A titration series of each recombinant protein was prepared by serial 1:1 dilutions in MST buffer (50 mM Tris–HCl pH 7.6, 150 mM NaCl, 10 mM MgCl2, 0.05% Tween-20) and mixed in a 1:1 ratio with FAM-GLI1p to give final concentrations of 50 nM FAM-GLI1p with MBP-SUFU constructs in the ranges 14.2–29 070 and 54–110 500 nM. Reactions were aspirated into glass capillaries and the thermophoretic movement of FAM-GLI1p was monitored using a Monolith NT.115 instrument (NanoTemper Technologies; Wienken et al., 2010[▶]), with a laser on for 30 s and off for 5 s and a laser power/voltage of 20% for MBP-SUFU-FL and the MBP-SUFU-FL mutants, 40% for MBP-SUFU-Δ and 80% for MBP-SUFU-SH. Fluorescence was measured before laser heating (F Cold) and after 30 s of laser-on time (F Hot). The normalized fluorescence F Hot/F Cold reflects the concentration ratio of labelled molecules. F Hot/F Cold was plotted directly and multiplied by a factor of […], yielding a relative change in fluorescence per thousand. K d was calculated from three independent thermophoresis measurements using NanoTemper software (NanoTemper Technologies). […]
# MBP-SUFU-FL = target: T1, MBP-SUFU-FL (Homo sapiens, UniProt Q9UMX1); test: Thermal stability assay with peptide, MBP-SUFU-FL; assay type: binding; details: 44 µM peptide, 2.2 µM protein, SYPRO Orange, 50 mM Na HEPES pH 7.0, 50 mM NaCl, 5 mM β-mercaptoethanol; triplicate
# T1 construct: containing residues 32–483 of human SUFU and a C-terminal hexahistidine tag; hexahistidine tag (C); made in house; host or cells: Escherichia coli JM109 (DE3)
# T1 sequence (Q9UMX1 32-483, other chains not shown): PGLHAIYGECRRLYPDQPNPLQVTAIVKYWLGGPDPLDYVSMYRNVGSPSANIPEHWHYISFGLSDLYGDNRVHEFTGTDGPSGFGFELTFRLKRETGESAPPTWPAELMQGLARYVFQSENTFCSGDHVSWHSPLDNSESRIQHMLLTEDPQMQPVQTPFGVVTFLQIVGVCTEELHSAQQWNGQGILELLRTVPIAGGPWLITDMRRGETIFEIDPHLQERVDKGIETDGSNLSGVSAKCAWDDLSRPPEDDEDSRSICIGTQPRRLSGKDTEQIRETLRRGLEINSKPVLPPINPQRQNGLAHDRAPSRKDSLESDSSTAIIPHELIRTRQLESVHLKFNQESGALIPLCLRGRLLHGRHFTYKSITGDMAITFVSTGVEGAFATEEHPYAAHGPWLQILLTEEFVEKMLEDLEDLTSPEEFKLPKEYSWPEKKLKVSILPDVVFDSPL
# Protocol: Recombinant MBP-SUFU proteins were diluted to 2.6 μM in 50 mM Na HEPES pH 7.0, 50 mM NaCl, 5 mM β-mercaptoethanol; the peptides GLI1p and GLI1p-SH (Supplementary Table S1b), synthesized by Dr W. Mawby (University of Bristol), were dissolved in the same buffer. Proteins were spun at 14 000g for 20 min at 4°C before adding SYPRO Orange (Molecular Probes) to a final concentration of 6×. Reaction volumes of 25 μl were prepared in 96-well PCR plates with 2.2 μM protein/SYPRO Orange solution and, where applicable, 44 μM peptide. Plates were sealed with optical tape, heated from 20 to 90°C in 12 s 0.2°C steps in an iCycler and fluorescence was detected using an excitation wavelength of 470 nm and an emission wavelength of 570 nm. To determine whether the IDR affects the GLI-binding properties of SUFU, we used a human GLI1-derived peptide (GLI1p; residues 115-131; Supplementary Table S1b) containing the highly conserved SYGH motif important for interaction with SUFU (Dunaeva et al., 2003[▶]) in a thermal stability assay with MBP-SUFU-FL and MBP-SUFU-Δ (Fig. 4 ▶ a). The addition of GLI1p stabilized both proteins: T m for MBP-SUFU-FL was shifted by 4°C and that for MBP-SUFU-Δ was shifted by 3.6°C. […] The GLI1 dose dependency of this effect was confirmed in a separate experiment with increasing GLI1p concentrations (Supplementary Fig. […]).
substance,measurement,setting,value
"GLI1p: human GLI1-derived peptide; residues 115–131, containing the highly conserved SYGH motif (TSPGGSYGHLSIGTMSP)",detectable binding,[1],abolished detectable binding
same,Tm shift,MBP-SUFU-FL,4 °C
